Results on ten compounds are retold here after US20100256333A1, “Peptide-Based Beta Turn Mimetics” (UNIVERSITY OF MANITOBA, priority 2009, published 2010).

Molecules are shown by their SMILES. Where “and” joins values, the source holds several entries; their conditions need not be identical. Equal values may be shown once.

Common to all, as to assay type: physicochemical
Series [1] can be described thus: Prolyl amide trans/cis ratio by 1H-NMR integration (peptide mimics 3-8). The following applies: for Experimental distribution of cis conformers / Experimental distribution of trans conformers / Cis population of prolyl N-acetyl N′-methylamides: in D2O; for Experimental distribution of cis conformers / Experimental distribution of trans conformers: 1H-NMR integration; for Trans/cis ratio Kt/c / cis % isomer: in water, 500 MHz NMR at 25 °C; for Trans/cis ratio Kt/c: ±0.04; for cis % isomer / Cis population of prolyl N-acetyl N′-methylamides: ±3%. As for the experimental part: For each compound 3-6, the ratio of trans/cis isomers was calculated by integrating and averaging as many well-resolved proton signals as possible in the ^1H-NMR spectra (Table 2) (taylor et al., 2003).
The cis population of peptide mimics 7 and 8 are presented in Table 3 together with previously published data for proline analog 9 (Beausoleil and Lubell, 1996), 5-methylproline analogs 10 and 11 (Delaney and Madison, 1982) and 5-tent-butylproline analogs 12 and 13 (Beausoleil and Lubell, 1996).
(§1) Thermodynamics. The equilibrium constants for the interconversion of the cis and trans isomers of 3-6 were determined by measuring the peak area of the 1H resonance for the two isomers. Peak areas were measured with the program Spinworks 2.5. Experiments were conducted at 298-360 K. Equilibrium constants (Kt/c=trans/cis ratios) were calculated directly from the peak areas.

A short description of series [2]: Kinetics of prolyl amide cis/trans isomerization by 1H-NMR inversion-magnetization transfer, Eyring plots. The following applies: for Free energy of activation ΔG‡ cis to trans / Free energy of activation ΔG‡ trans to cis: at 298K, D2O; for Rate constant ktc (trans to cis): calculated from kct and Kt/c. As for the experimental part: Kinetics of cis-trans prolyl amide bond isomerization in peptide mimics 3-6. The kinetics of cis/trans isomerization for compounds 3-6 were determined by ^1H-NMR spectroscopy inversion-magnetization transfer experiments (Perrin and Dwyer, 1990; Reimer et al., 1998) in D2O (Table 4). Because the rates for cis/trans isomerization are extremely slow in protic solvents, the inventors performed these experiments at elevated temperatures (Stein, 1993). At 83° C., the trans-to-cis rate constants of isomerizations (ktc) follows the order 4<5≈6<3. A 200-fold rate difference is observed for diastereomeric amides 3 and 4.
The effects of temperature on kct and ktc were analyzed by Eyring plots (FIG. 6) (Eyring, 1935). The values for ΔH^‡ and ΔS^‡ (Table 5) were calculated from linear least squares fits of the data in these plots (Eyring, 1935). […] However, the activation enthalpy is partially compensated by a higher activation entropy.
Inversion-magnetization transfer NMR experiments were performed on Bruker AMX500 spectrometer equipped with selective excitation units, and ^1H and broadband heteronuclear probes. Samples of 3-6 were prepared at a concentration of 0.01 M in D2O. The rate of prolyl peptide bond isomerization can not be detected by this method at room temperature. Experiments were therefore conducted at elevated temperature at 356 K. Temperature settings of the spectrometer were calibrated to within 1° C. by reference to a glycol standard.

The nature of series [3]: Thermodynamics of isomerization, Kt/c versus temperature, Van't Hoff plots. The following applies: D2O; for ΔG° (298K) of isomerization: in kcal/mol; for ΔH° of isomerization / ΔS° of isomerization: Van't Hoff plots. The procedure: Thermodynamics The effects of temperature on the values Kt/c=(kct/ktc) for each compound were measured directly by NMR spectroscopy over the temperature range 25-93° C. The resulting data were analyzed by Van't Hoff plots (FIG. 7). […] In this case the major cis isomer becomes increasingly favored as the temperature decreases. Values for ΔH^o and ΔS^o were calculated from linear least-squares fits of these plots (Table 6).
as §1

Series [4] can be described thus: Cis population and equilibrium constant Kc/t of GlcTProLysC peptide mimics by 1H NMR, pH effect. The following applies: HCl salt; for Equilibrium constant Kc/t / Cis population: in D2O; for Equilibrium constant Kc/t: ±0.04; for Cis population: ±3%; for Kc/t: D2O. As for the experimental part:
The equilibrium constants Kc/t for compounds 3-22 to 3-25 are shown in Table 15 and were determined by integrating and averaging as many distinct proton signals as possible for both the major and minor isomers in the ^1H NMR spectra (Taylor et al., 2003). […] It appears that the stereochemistry at C-5′ has a profound effect on the equilibrium of isomerization. Also, the cis prolyl amide population in esters 3-22 and 3-23, was generally lower than N′-methylamides 3-24 and 3-25. Taylor and co-workers have proposed that the trans conformation of esters is stabilized relative to amides as a result of increased electron donation from the oxygen lone pair of the N-terminal amide carbonyl group to the antibonding orbital of the prolyl C-terminal carbonyl group (FIG. 20) (Taylor et al., 2003).
Effect of pH. Since compound 3-22 to 3-25 have an ionizable amino group, the inventors were interested to study the influence of the ionization state on Kt/c. […] The inventors selected three buffer ranges: pH=2.6, 7.4 and 12.4, to examine the pH effect on the isomerization of 3-24 and 3-25 (Table 16).
Measurement of equilibrium constant: The calculation was based on the integration of well-resolved peaks of the γ-protons, N-terminal methyl group and α-proton in ^1H NMR.

On to `COC(=O)C1N(C(C)=O)C(CO)CC12OC(CO)C(O)C(O)C2O` [Compound 3, (1S)-2,3,4,6-Tetrahydroxy-1′-N-acetyl-5′(S)-hydroxymethylene-spiro[1,5-anhydro-D-glucitol-1,3′-L-prolinemethyl ester]], for which, in series [1], the “Experimental distribution of cis conformers” value is 23±3%, the “Experimental distribution of trans conformers” value was determined as 77 ± 3%, the “Trans/cis ratio Kt/c” value came to 3.35 and the cis % isomer is reported as 23%. In series [2] (D2O at 83 °C), the “Rate constant kct (cis to trans)” value was determined as 0.18 ± 0.01 s⁻¹ and the “Rate constant ktc (trans to cis)” value was 0.08 ± 0.004 s⁻¹. Moreover, in series [2] (Eyring plots in D2O), the “Activation enthalpy ΔH‡ cis to trans” value stood at 26.1 kcal/mol, the “Activation enthalpy ΔH‡ trans to cis” value stood at 26.4 kcal/mol, the “Activation entropy ΔS‡ cis to trans” value came to 11.1 cal/mol.K and the “Activation entropy ΔS‡ trans to cis” value is 10.2 cal/mol.K. In addition, the “Increase in activation enthalpy compared to compounds 4-6” value in series [2] (Eyring plots in D2O) was 3.9 to 6.8 kcal/mol. In addition, in series [2], the “Free energy of activation ΔG‡ cis to trans” value was determined as 22.8 kcal/mol and the “Free energy of activation ΔG‡ trans to cis” value is 23.4 kcal/mol. In series [3], the “ΔG° (298K) of isomerization” value is −0.80 ± 0.13, the “ΔH° of isomerization” value was -1.67 ± 0.06 kcal/mol and the “ΔS° of isomerization” value is −2.93 ± 0.20 cal/mol•K.

For the compound `COC(=O)C1N(C(C)=O)C(CO)CC12OC(CN)C(O)C(O)C2O.Cl` [Compound 3-22, (1S)-6-Amino-6-deoxy-1′-N-acetyl-5′(R)-hydroxymethylene-spiro[1,5-anhydro-D-glucitol-1,3′-L-prolinemethyl ester] HCl salt], in series [4], the “Equilibrium constant Kc/t” value was 1.22 and the Cis population was found to be 55%.

In the case of `COC(=O)C1N(C(C)=O)C(CO)CC12OC(CN)C(O)C(O)C2O.Cl` [Compound 3-23, (1S)-6-Amino-6-deoxy-1′-N-acetyl-5′(S)-hydroxymethylene-spiro[1,5-anhydro-D-glucitol-1,3′-L-prolinemethyl ester] HCl salt], in series [4], the “Equilibrium constant Kc/t” value is listed as 0.23 and the Cis population turned out to be 19%.

Consider `CNC(=O)C1N(C(C)=O)C(CO)CC12OC(CN)C(O)C(O)C2O.Cl` [Compound 3-24, (1S)-6-Amino-6-deoxy-1′-N-acetyl-5′(R)-hydroxymethylene-spiro[1,5-anhydro-D-glucitol-1,3′-L-prolinemethyl amide] HCl salt], for which the Kc/t in series [4] (pD 2.6, ±0.04) was determined as 3.03; in series [4] (pD 7.4, ±0.04), 3.03; in series [4] (pD 12.4, ±0.04) it was 2.70. The “Equilibrium constant Kc/t” value in series [4] was determined as 3.03. For the same compound, in series [4], the Cis population was determined as 75%.

In the case of `CNC(=O)C1N(C(C)=O)C(CO)CC12OC(CN)C(O)C(O)C2O.Cl` [Compound 3-25, (1S)-6-Amino-6-deoxy-1′-N-acetyl-5′(S)-hydroxymethylene-spiro[1,5-anhydro-D-glucitol-1,3′-L-prolinemethyl amide] HCl salt], the Kc/t in series [4] (pD 2.6, ±0.04) is 0.61; in series [4] (pD 7.4, ±0.04), 0.56; in series [4] (pD 12.4, ±0.04), 0.61. The “Equilibrium constant Kc/t” value in series [4] is reported as 0.56. Also, the Cis population in series [4] was found to be 36%.

As to `COC(=O)C1N(C(C)=O)C(CO)CC12OC(CO)C(O)C(O)C2O` [Compound 4, (1S)-2,3,4,6-Tetrahydroxy-1′-N-acetyl-5′(R)-hydroxymethylene-spiro[1,5-anhydro-D-glucitol-1,3′-L-prolinemethyl ester]], in series [1], the “Experimental distribution of cis conformers” value is 53±3%, the “Experimental distribution of trans conformers” value stood at 47 ± 3%, the “Trans/cis ratio Kt/c” value was 0.88 and the cis % isomer is listed as 53%. Further, in series [2] (D2O at 83 °C), the “Rate acceleration for kct compared to parent compounds 5 and 6” value is ~6 fold; the “Rate acceleration for ktc compared to parent compounds 5 and 6” value is given as ~20 fold; the “Rate constant kct (cis to trans)” value amounted to 16.19 ± 1.19 s⁻¹; the “Rate constant ktc (trans to cis)” value was 19.82 ± 1.45 s⁻¹. Also, in series [2] (Eyring plots in D2O), the “Activation enthalpy ΔH‡ cis to trans” value came to 19.8 kcal/mol, the “Activation enthalpy ΔH‡ trans to cis” value is 19.6 kcal/mol, the “Activation entropy ΔS‡ cis to trans” value was determined as 2.2 cal/mol.K and the “Activation entropy ΔS‡ trans to cis” value stood at 1.9 cal/mol.K. In series [2], the “Free energy of activation ΔG‡ cis to trans” value is given as 19.1 kcal/mol and the “Free energy of activation ΔG‡ trans to cis” value is on record as 19.0 kcal/mol. Moreover, in series [3], the “ΔG° (298K) of isomerization” value amounted to 0.19 ± 0.11, the “ΔH° of isomerization” value was 0.50 ± 0.06 kcal/mol and the “ΔS° of isomerization” value turned out to be 1.05 ± 0.16 cal/mol•K.

For `COC(=O)[C@@H]1[C@@H](O)CCN1C(C)=O` [Compound 5, N-acetyl-3(S)-hydroxy-L-proline methyl ester, reference compound], in series [1], the “Trans/cis ratio Kt/c” value is reported as 4.88 and the cis % isomer was 17%. Also, in series [2] (D2O at 83 °C), the “Rate constant kct (cis to trans)” value was determined as 2.63 ± 0.28 s⁻¹ and the “Rate constant ktc (trans to cis)” value is 1.02 ± 0.09 s⁻¹. Also, in series [2] (Eyring plots in D2O), the “Activation enthalpy ΔH‡ cis to trans” value was 21.6 kcal/mol, the “Activation enthalpy ΔH‡ trans to cis” value worked out at 21.5 kcal/mol, the “Activation entropy ΔS‡ cis to trans” value is listed as 3.6 cal/mol.K and the “Activation entropy ΔS‡ trans to cis” value came out at 1.6 cal/mol.K. In addition, in series [2], the “Free energy of activation ΔG‡ cis to trans” value is given as 20.5 kcal/mol and the “Free energy of activation ΔG‡ trans to cis” value is listed as 21.1 kcal/mol. Moreover, in series [3], the “ΔG° (298K) of isomerization” value is −0.95 ± 0.05, the “ΔH° of isomerization” value was -1.09 ± 0.03 kcal/mol and the “ΔS° of isomerization” value is given as −0.48 ± 0.08 cal/mol•K.

Regarding `COC(=O)[C@@H]1CCCN1C(C)=O` [Compound 6, N-acetyl-L-proline methyl ester, reference compound], in series [1], the “Trans/cis ratio Kt/c” value is on record as 6.14 and the cis % isomer is recorded as 14%. Also, in series [2] (D2O at 83 °C), the “Rate constant kct (cis to trans)” value stood at 2.95 ± 0.12 s⁻¹ and the “Rate constant ktc (trans to cis)” value is 0.82 ± 0.04 s⁻¹. Moreover, in series [2] (Eyring plots in D2O), the “Activation enthalpy ΔH‡ cis to trans” value was 21.9 kcal/mol, the “Activation enthalpy ΔH‡ trans to cis” value came to 22.5 kcal/mol, the “Activation entropy ΔS‡ cis to trans” value was found to be 4.8 cal/mol.K and the “Activation entropy ΔS‡ trans to cis” value was determined as 3.9 cal/mol.K. Besides, in series [2], the “Free energy of activation ΔG‡ cis to trans” value is reported as 20.5 kcal/mol and the “Free energy of activation ΔG‡ trans to cis” value is on record as 21.4 kcal/mol. Besides, in series [3], the “ΔG° (298K) of isomerization” value was −1.01 ± 0.08, the “ΔH° of isomerization” value was -1.21 ± 0.04 kcal/mol and the “ΔS° of isomerization” value was −0.71 ± 0.12 cal/mol•K.

As to `CNC(=O)C1N(C(C)=O)C(CO)CC12OC(CO)C(O)C(O)C2O` [Compound 7, (1S)-2,3,4,6-Tetrahydroxy-1′-N-acetyl-5′(S)-hydroxymethylene-spiro[1,5-anhydro-D-glucitol-1,3′-L-prolinemethylamide]], in series [1], the “Cis population of prolyl N-acetyl N′-methylamides” value was 38% and 38±3%.

Turning to `CNC(=O)C1N(C(C)=O)C(CO)CC12OC(CO)C(O)C(O)C2O` [Compound 8, (1S)-2,3,4,6-tetrahydroxy-1′-N-acetyl-5′(R)-hydroxymethylene-spiro[1,5-anhydro-D-glucitol-1,3′-L-prolinemethylamide]], in series [1], the “Cis population of prolyl N-acetyl N′-methylamides” value was 74% and 74±3%.
